26 compounds from US20240166635A1, “AMINOHETEROARYL KINASE INHIBITORS” (Anrui Biomedical Technology (Guangzhou) Co.,Ltd., priority 2020, published 2024) can be followed below.

Common to all, as to format: biochemical
Assay [1] addresses CDK2/CyclinE1 (Homo sapiens (Human), UniProt P24941). Nature of the assay: CDK2/CyclinE1 kinase inhibitory activity (Caliper mobility shift). The note with it: read-out: CDK2/Cyclin El IC50.
In assay [2] the target is CDK1/CyclinB (Homo sapiens (Human), UniProt P06493). Kind of assay: CDK1/CyclinB kinase inhibitory activity (Caliper mobility shift). The note with it: read-out: CDK1/Cyclin B1 IC50.
Assay [3] concerns the target CDK9/CyclinT1 (Homo sapiens (Human), UniProt P50750). Kind of assay: CDK9/CyclinT1 kinase inhibitory activity (Caliper mobility shift). To be noted: read-out: CDK9/Cyclin T1 IC50.

Chain of CDK1/CyclinB (P06493 whole entry): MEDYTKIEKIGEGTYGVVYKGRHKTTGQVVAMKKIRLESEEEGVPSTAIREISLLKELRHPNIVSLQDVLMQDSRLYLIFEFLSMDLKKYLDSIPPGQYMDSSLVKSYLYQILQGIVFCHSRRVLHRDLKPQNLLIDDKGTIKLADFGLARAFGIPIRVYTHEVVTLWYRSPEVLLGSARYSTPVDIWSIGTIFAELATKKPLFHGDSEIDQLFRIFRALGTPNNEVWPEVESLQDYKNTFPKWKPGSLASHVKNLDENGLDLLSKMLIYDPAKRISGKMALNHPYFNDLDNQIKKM
Chain of CDK1/CyclinB (P14635 whole entry partner): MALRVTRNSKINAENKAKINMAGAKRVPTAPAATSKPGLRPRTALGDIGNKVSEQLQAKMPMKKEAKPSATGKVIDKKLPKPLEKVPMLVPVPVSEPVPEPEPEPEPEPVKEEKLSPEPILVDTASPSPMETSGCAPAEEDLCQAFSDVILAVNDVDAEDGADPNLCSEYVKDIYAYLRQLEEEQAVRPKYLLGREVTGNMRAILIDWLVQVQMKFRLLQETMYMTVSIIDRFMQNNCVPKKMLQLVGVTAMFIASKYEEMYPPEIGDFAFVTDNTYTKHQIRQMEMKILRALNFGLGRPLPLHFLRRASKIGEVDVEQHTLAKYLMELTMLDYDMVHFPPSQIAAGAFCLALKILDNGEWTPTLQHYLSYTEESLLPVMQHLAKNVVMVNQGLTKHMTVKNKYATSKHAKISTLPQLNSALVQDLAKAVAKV
Chain of CDK9/CyclinT1 (P50750 whole entry): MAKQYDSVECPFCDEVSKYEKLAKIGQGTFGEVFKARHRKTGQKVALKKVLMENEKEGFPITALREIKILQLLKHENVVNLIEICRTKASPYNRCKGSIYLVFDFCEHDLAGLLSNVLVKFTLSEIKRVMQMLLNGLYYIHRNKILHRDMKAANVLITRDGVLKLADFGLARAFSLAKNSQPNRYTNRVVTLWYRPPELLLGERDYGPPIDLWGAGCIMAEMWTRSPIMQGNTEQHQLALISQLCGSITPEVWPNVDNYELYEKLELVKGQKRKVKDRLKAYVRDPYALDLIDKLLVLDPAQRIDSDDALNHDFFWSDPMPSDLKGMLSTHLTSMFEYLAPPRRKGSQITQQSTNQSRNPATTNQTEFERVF
Chain of CDK9/CyclinT1 (O60563 whole entry partner): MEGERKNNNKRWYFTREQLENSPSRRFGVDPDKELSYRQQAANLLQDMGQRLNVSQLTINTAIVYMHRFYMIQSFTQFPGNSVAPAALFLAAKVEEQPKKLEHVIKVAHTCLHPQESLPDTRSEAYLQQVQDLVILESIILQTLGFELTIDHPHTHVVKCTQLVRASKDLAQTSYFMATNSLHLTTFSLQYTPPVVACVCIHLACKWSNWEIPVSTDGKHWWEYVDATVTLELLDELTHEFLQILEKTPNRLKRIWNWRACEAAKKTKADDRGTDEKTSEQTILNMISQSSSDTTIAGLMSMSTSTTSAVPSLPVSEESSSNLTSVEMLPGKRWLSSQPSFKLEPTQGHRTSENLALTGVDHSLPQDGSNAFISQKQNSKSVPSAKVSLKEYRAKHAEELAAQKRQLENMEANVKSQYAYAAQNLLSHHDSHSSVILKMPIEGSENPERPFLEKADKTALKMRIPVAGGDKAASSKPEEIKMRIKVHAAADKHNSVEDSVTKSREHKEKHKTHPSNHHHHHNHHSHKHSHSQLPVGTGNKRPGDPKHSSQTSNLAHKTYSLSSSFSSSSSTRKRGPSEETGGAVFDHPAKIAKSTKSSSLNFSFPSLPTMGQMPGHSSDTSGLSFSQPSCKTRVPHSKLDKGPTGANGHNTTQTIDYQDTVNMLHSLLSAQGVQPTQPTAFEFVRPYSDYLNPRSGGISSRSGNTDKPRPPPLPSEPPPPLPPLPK

Regarding `NS(=O)(=O)c1ccc(Nc2ncc(C(F)(F)F)c(O[C@@H]3CCC[C@@H]3O)n2)cc1` (single isomer, unassigned) [Example 99b, cis-4-((4-((2-hydroxycyclopentyl)oxy)-5-(trifluoromethyl)pyrimidin-2-yl)amino)benzenesulfonamide], the results for the IC50 in assay [1], in assay [2] and in assay [3] were less than 0.01 µM, 0.01 to 0.1 µM and 0.1 to 1 µM, respectively.
The matching figures for `NS(=O)(=O)c1ccc(Nc2ncc(Cl)c(OC3CCCC3O)n2)cc1` (single isomer, unassigned) [Example 136b]: less than 0.01 µM, 0.01 to 0.1 µM and 0.1 to 1 µM.
Consider `[2H]C([2H])([2H])NS(=O)(=O)c1ccc(Nc2ncc(CC)c(OC3COCCC3(C)O)n2)cc1` (single isomer, unassigned) [Example 153b], for which the figures for the IC50 in assay [1], in assay [2] and in assay [3] were 0.01 to 0.1 µM, not below 1 µM and not below 1 µM, respectively.
In the case of `NS(=O)(=O)c1ccc(Nc2ncc(C(F)(F)F)c(OC3CCCCC3O)n2)cc1` (single isomer, unassigned) [Example 111a], the IC50 in assay [1] is less than 0.01 µM; in assay [2], 0.1 to 1 µM; in assay [3], 0.1 to 1 µM.
As for `CC(C)NS(=O)(=O)c1ccc(Nc2ncc(Cl)c(OC3CCCC3O)n2)cc1` (single isomer, unassigned) [Example 138b], the IC50 in assay [1] was less than 0.01 µM; in assay [2], 0.01 to 0.1 µM; in assay [3] it was 0.1 to 1 µM.
`N#Cc1cnc(Nc2ccc(S(N)(=O)=O)cc2)nc1OC1CCCC1CO` (single isomer, unassigned) [Example 18a]: the IC50 in assay [1] lay within 0.01 to 0.1 µM; in assay [2], 0.1 to 1 µM; in assay [3] it was 0.1 to 1 µM.
On to `CCc1cnc(Nc2ccc(S(N)(=O)=O)cc2)nc1O[C@@H]1CCC[C@@H]1O` (single isomer, unassigned) [Example 133b, cis-4-((5-ethyl-4-((2-hydroxycyclopentyl)oxy)pyrimidin-2-yl)amino)benzenesulfonamide], for which the IC50 was less than 0.01 µM in assay [1], 0.1 to 1 µM in assay [2] and 0.1 to 1 µM in assay [3].
Take `[2H]C([2H])([2H])NS(=O)(=O)c1ccc(Nc2ncc(CC)c(OC3CCCC3O)n2)cc1` (single isomer, unassigned) [Example 149b]: the IC50 in assay [1] lay in the range of 0.01 to 0.1 µM; in assay [2], 0.1 to 1 µM; in assay [3] it was 0.1 to 1 µM.
On to `O=S(=O)(NC1CCOCC1)c1ccc(Nc2ncc(Cl)c(O[C@@H]3CCC[C@@H]3O)n2)cc1` (single isomer, unassigned) [Example 130b, cis-4-((5-chloro-4-((2-hydroxycyclopentyl)oxy)pyrimidin-2-yl)amino)-N-(tetrahydro-2H-pyran-4-yl)benzenesulfonamide], for which the IC50 is 0.01 to 0.1 µM in assay [1], 0.01 to 0.1 µM in assay [2] and 0.1 to 1 µM in assay [3].
As to `CC1(NS(=O)(=O)c2ccc(Nc3ncc(Br)c(O[C@@H]4CCC[C@@H]4O)n3)cc2)COC1` (single isomer, unassigned) [Example 131b, cis-4-((5-bromo-4-((2-hydroxycyclopentyl)oxy)pyrimidin-2-yl)amino)-N-(3-methyloxetan-3-yl)benzenesulfonamide], the IC50 was less than 0.01 µM in assay [1], 0.1 to 1 µM in assay [2] and 0.1 to 1 µM in assay [3].
As for `C=Cc1cnc(Nc2ccc(S(N)(=O)=O)cc2)nc1OC1CCCC1O` (single isomer, unassigned) [Example 155b], the IC50 in assay [1] is less than 0.01 µM; in assay [2], 0.1 to 1 µM; in assay [3], 0.1 to 1 µM.
Take `N#Cc1cnc(Nc2ccc(S(N)(=O)=O)cc2)nc1OC1CCCC(O)C1` (single isomer, unassigned) [Example 21a]: the values for the IC50 in assay [1], in assay [2] and in assay [3] were less than 0.01 µM, 0.1 to 1 µM and 0.1 to 1 µM, respectively.
With `CC1(O)CCCC1Oc1nc(NC2CCN(S(=O)(=O)CC3CC3)CC2)ncc1C#N` (single isomer, unassigned) [Example 38b], the results for the IC50 in assay [1], in assay [2] and in assay [3] were 0.01 to 0.1 µM, 0.1 to 1 µM and not below 1 µM, respectively.
For `CS(=O)(=O)N1CCC(Nc2ncc(Br)c(OC3CCCCCC3O)n2)CC1` (single isomer, unassigned) [Example 145a], the values for the IC50 in assay [1], in assay [2] and in assay [3] were 0.01 to 0.1 µM, 0.1 to 1 µM and not below 1 µM, respectively.
In the case of `C[C@@H]1C[C@H](O)CCN1c1nc(Nc2ccc(S(N)(=O)=O)cc2)ncc1C#N` [Example 75], the results for the IC50 in assay [1], in assay [2] and in assay [3] were less than 0.01 µM, 0.01 to 0.1 µM and 0.01 to 0.1 µM, respectively.
With `NS(=O)(=O)c1ccc(Nc2ncc(C(F)(F)F)c(O[C@H]3[C@@H]4CC[C@@H](C4)[C@H]3O)n2)cc1` (single isomer, unassigned) [Example 113a], the values for the IC50 in assay [1], in assay [2] and in assay [3] were less than 0.01 µM, 0.1 to 1 µM and 0.1 to 1 µM, respectively.
`CNS(=O)(=O)c1ccc(Nc2ncc(Br)c(OC3CCCC3O)n2)cc1` (single isomer, unassigned) [Example 142b]: the IC50 in assay [1] was less than 0.01 µM; in assay [2], 0.01 to 0.1 µM; in assay [3] it was 0.1 to 1 µM.
The like results for `N#Cc1cnc(Nc2ccc(S(N)(=O)=O)cc2)nc1OC1CCCC(O)C1` (single isomer, unassigned) [Example 21b] were, in that order, 0.01 to 0.1 µM, 0.1 to 1 µM and 0.1 to 1 µM.
With `N#Cc1cnc(Nc2ccc(S(N)(=O)=O)cc2)nc1OCC1CCCC1O` (single isomer, unassigned) [Example 19b], the IC50 in assay [1] was less than 0.01 µM; in assay [2] it was 0.01 to 0.1 µM; in assay [3], 0.1 to 1 µM.
With `CC1(O)CCCC1Oc1nc(Nc2ccc(S(N)(=O)=O)cc2)ncc1C1CC1` (single isomer, unassigned) [Example 154b], the values for the IC50 in assay [1], in assay [2] and in assay [3] were less than 0.01 µM, 0.01 to 0.1 µM and 0.1 to 1 µM, respectively.
`CC1(O)CCCC1Oc1nc(NC2CCN(S(=O)(=O)CF)CC2)ncc1C#N` (single isomer, unassigned) [Example 37b]: the values for the IC50 in assay [1], in assay [2] and in assay [3] were 0.01 to 0.1 µM, 0.1 to 1 µM and not below 1 µM, respectively.
As to `CNS(=O)(=O)c1ccc(Nc2ncc(C#N)c(OC3CCCC3(C)O)n2)cc1` (single isomer, unassigned) [Example 34b], the figures for the IC50 in assay [1], in assay [2] and in assay [3] were less than 0.01 µM, 0.1 to 1 µM and not below 1 µM, respectively.
With `CC(C)NS(=O)(=O)c1ccc(Nc2ncc(C#N)c(OC3CCC(O)C3)n2)cc1` (single isomer, unassigned) [Example 29a], the results for the IC50 in assay [1], in assay [2] and in assay [3] were less than 0.01 µM, 0.1 to 1 µM and 0.1 to 1 µM, respectively.
For `[2H]C([2H])([2H])NS(=O)(=O)c1ccc(Nc2ncc(C)c(OC3CCCC3O)n2)cc1` (single isomer, unassigned) [Example 148b], the figures for the IC50 in assay [1], in assay [2] and in assay [3] were 0.01 to 0.1 µM, 0.1 to 1 µM and not below 1 µM, respectively.
Consider `N#Cc1cnc(Nc2ccc(S(=O)(=O)NC3CC(F)C3)cc2)nc1OC1CCCCC1O` (single isomer, unassigned) [Example 31b], for which the results for the IC50 in assay [1], in assay [2] and in assay [3] were 0.01 to 0.1 µM, 0.1 to 1 µM and not below 1 µM, respectively.
The matching figures for `N#Cc1cnc(Nc2ccc(S(N)(=O)=O)cc2)nc1OCC1CCCC1O` (single isomer, unassigned) [Example 19a]: less than 0.01 µM, 0.01 to 0.1 µM and 0.1 to 1 µM.
